Assays:
Type in all cases: cell-based, murine
[1] = system: p38; experiment: Western blot of LPS-induced p38 phosphorylation in BV-2 cells; details: 5–20 µM; LPS 30 min, similar pattern at 24 h
Experimental: (§1) BV-2 cells were seeded in a 6-well plate at a density of 6 × 10^5 cells/well and exposed to LPS (100 ng/mL) in the presence or absence of compound 3 for required time. After treatment, cells were collected and lysed in cell lysis buffer (50 mM Tris–HCl, pH 8.0, 0.1% SDS, 150 mM NaCl, 1% NP-40, 0.02% sodium azide, 0.5% sodium deoxycholate, 100 µg/mL PMSF, and […]) for 24 h at 4 °C. The protein content was measured using a Bradford assay. Equal amounts of protein (30 µg) were separated using SDS-PAGE and transferred to a nitrocellulose membrane. The membrane was blocked for 1 h with 5% skim milk in tris-buffered saline with Tween-20 (TBST) and then incubated for 12 h with primary antibodies against α-tubulin (Sigma-Aldrich Cat. no: T5168), iNOS (Bioscience Cat. no: 610333, COX-2 (Santa Cruz Cat. no: sc-1745), ERK (Cell Signaling Cat. no: 9107s), pERK (Cell Signaling Cat. no: 5013s), JNK (Cell Signaling Cat. no: 9252s), pJNK (Cell Signaling Cat. no: 4671s), p38 (Cell Signaling Cat. no: 8690s), and pP38 (Cell Signaling Cat. no: 9211s), followed by incubation for 1 h with horseradish peroxidase-conjugated secondary antibodies (Cell Signaling) at 15 °C. […]
(§2) Fig. 3 Effect of compound 3 on MAPK pathway in LPS-induced BV-2 cells. […] The phosphorylation of p38, JNK, and ERK was measured by western blotting (a–c). […]

[2] = system: PGE2; experiment: ELISA of PGE2 in LPS-activated BV-2 culture medium; details: 5, 10 and 20 µM, LPS 24 h
Experimental: (§3) To measure TNF-α, IL-6, and PGE2, BV-2 cells were seeded in a 24-well plate at a density of 3 × 10^5 cells/well. The cells were treated with LPS (100 ng/mL) in the presence or absence of compound 3 for 24 h, and the media was collected and centrifuged. IL-6, TNF-α, and PGE2 produced in microglial culture supernatants […] were measured by competitive enzyme immunoassay kits (R&D systems, Minneapolis, MN, USA) in accordance with the manufacturer’s protocol.
(§4) Fig. 2 Effect of compound 3 on LPS-induced iNOS and COX2 expression in BV-2 cells. BV-2 cells were pretreated with various concentrations (5, 10, and 20 µM) of compound 3 for 30 min and activated with 100 ng/mL LPS. After 6 h, the cells were collected for analysis of iNOS and COX-2 expression using western blot analysis (a–c). Similarly, LPS activation was made for 24 h as chronic BV2 activation and the iNOS and COX-2 expression was measured (d). α-Tubulin was used as the loading control. The densitometric analysis of bands was performed as described in the methods section. After 24 h, the culture medium was subsequently collected to measure the quantity of PGE2 (e), IL-6 (f), and TNF-α (g) using ELISA analysis. […]

[3] = system: TNF-α; experiment: ELISA of TNF-α in LPS-activated BV-2 culture medium; details: 10 and 20 µM, LPS 24 h
Experimental: as §3, §4

[4] = system: COX-2; experiment: Western blot of LPS-induced COX-2 expression in BV-2 cells
Experimental: BV-2 cells were seeded in a 6-well plate at a density of 6 × 10^5 cells/well and exposed to LPS (100 ng/mL) in the presence or absence of compound 3 for required time. After treatment, cells were collected and lysed in cell lysis buffer (50 mM Tris–HCl, pH 8.0, 0.1% SDS, 150 mM NaCl, 1% NP-40, 0.02% sodium azide, 0.5% sodium deoxycholate, 100 µg/mL PMSF, and […]) for 24 h at 4 °C. The protein content was measured using a Bradford assay. Equal amounts of protein (30 µg) were separated using SDS-PAGE and transferred to a nitrocellulose membrane. […]
Fig. 2 Effect of compound 3 on LPS-induced iNOS and COX2 expression in BV-2 cells. […] Similarly, LPS activation was made for 24 h as chronic BV2 activation and the iNOS and COX-2 expression was measured (d). α-Tubulin was used as the loading control. […] After 24 h, the culture medium was subsequently collected to measure the quantity of PGE2 (e), IL-6 (f), and TNF-α (g) using ELISA analysis. […]

[5] = system: c-Jun N-terminal kinase (JNK); experiment: Western blot of LPS-induced JNK phosphorylation in BV-2 cells; details: 5–20 µM; LPS 30 min, similar pattern at 24 h
Experimental: as §1, §2

[6] = system: N2a cells; experiment: Neuronal cell viability (MTT) of N2a cells given conditioned media from LPS-stimulated BV-2 cells; details: Mus musculus, MTT after 24 h, read-out: N2a cell viability, % of the only LPS treated control value
Experimental: N2a cells were used as a representative neuronal cell line for the examination of apoptotic neuron viability using direct treatment of compound 3 with TNF-α activation as well as conditioned media (CM) from LPS-stimulated BV-2 cells treated with compound 3 [28]. This assay was performed following the methods described in our previous study, with slight modifications. To measure neuron viability, BV-2 cells were first seeded and treated with 100 ng/mL LPS in the presence or absence of compound 3. After 24 h, the CM was collected and transferred to N2a cells for a further 24 h. The cell viability of N2a cells was measured using the MTT assay. Well differentiated neuronal cells were used for the experimental purpose as shown in Additional file 1: Fig. S1.
Fig. 4 Neuroprotection of compound 3 in LPS-activated microglia in N2a cells. BV-2 microglial cells were pretreated with 5, 10, and 20 µM compound 3 for 30 min and stimulated with 100 ng/mL of LPS for 24 h. After 24 h of LPS treatment, the conditioned media (CM) were collected and transferred to N2a cells. After 24 h, MTT assay was done in the same CM treated N2a cells (a) and FACS analysis (b–h). An annexin V/PI apoptosis kit was used to quantify the percentage of cells undergoing apoptosis and necrosis (x-axis, annexin V; y-axis, PI) by using FACS analysis. CM-LPS treatment alone induced apoptosis and necrosis in N2a cells (g, h). […]

SMILES: COc1cc(/C=C/C=N/N=C/C=C/c2ccc(O)c(OC)c2)ccc1O [Compound 3, 4,4′-(1E,1′E,3E,3′E)-3,3′-(hydrazine-1,2-diylidene)bis(prop-1-ene-1-yl-3-ylidene)bis(2-methoxyphenol)]
- LPS-induced phosphorylation of p38 [1]: significantly inhibited
- LPS-activated PGE2 production [2]: reduced
- TNF-α secretion [3]: significant reduction
- Expression of COX-2 ([4]; 5, 10 and 20 µM, 30 min pretreatment, LPS 100 ng/mL 6 h): significantly reduced
- LPS induced COX-2 activation, chronic ([4]; 24 h chronic LPS activation): dramatically rescued
- LPS-induced phosphorylation of JNK [5]: significantly inhibited
- viability at 10 µM ([6]; CM of BV-2 cells treated with 10 µM compound + LPS): 199%
- viability at 20 µM ([6]; CM of BV-2 cells treated with 20 µM compound + LPS): 398%

— publication PMC5745756, “N,N-disubstituted azines attenuate LPS-mediated neuroinflammation in microglia and neuronal apoptosis via inhibiting MAPK signaling pathways” (BMC Neuroscience, 2017)
